From patent US11180511B2, “Diagnosis, treatment and prevention of neurotensin receptor-related conditions” (Friedrich-Alexander-Universitat Erlangen-Nurnberg, priority 2016, dated 2021)
Blank lines part the entries; values can stand above or below the molecule they belong to.

What was measured:
[1] = biological target: hNTS1 (Homo sapiens, UniProt P30989); assay: competitive radioligand binding, hNTS1; conditions: [^3H]NT; CHO
Description: (§1) Affinities for NTS1 and NTS2 as well as for dopaminergic and serotonergic receptors were determined in competitive radioligand binding assays using appropriate radioligands as shown in Table 1.

[2] = biological target: hNTS2 (Homo sapiens, UniProt O95665); assay: competitive radioligand binding, hNTS2; conditions: [^3H]NT (8-13); HEK
hNTS2, sequence (O95665 whole entry): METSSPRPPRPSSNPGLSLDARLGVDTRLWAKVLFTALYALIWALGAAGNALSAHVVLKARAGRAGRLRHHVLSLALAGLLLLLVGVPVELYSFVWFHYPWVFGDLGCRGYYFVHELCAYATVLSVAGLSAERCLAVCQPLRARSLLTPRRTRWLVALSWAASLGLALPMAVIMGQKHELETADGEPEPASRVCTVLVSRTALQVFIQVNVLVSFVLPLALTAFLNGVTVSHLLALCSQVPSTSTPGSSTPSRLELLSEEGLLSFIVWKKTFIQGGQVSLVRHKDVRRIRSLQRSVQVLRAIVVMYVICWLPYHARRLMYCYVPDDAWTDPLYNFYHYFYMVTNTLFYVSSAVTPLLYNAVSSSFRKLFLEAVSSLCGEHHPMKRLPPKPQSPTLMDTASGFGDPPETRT
Description: as §1

[3] = Stability in human plasma; format: in vitro ADME; conditions: 37° C., up to 7 days
Description: An aliquot of ^177Lu-14 (FAUC Lu469) in PBS (50 μL) was added to human plasma (200 μL) and incubated at 37° C. Aliquots (25 μL) were taken at various time intervals (1 h, 4 h, 24 h, 96 h, 7 days) and quenched with acetonitrile/0.1% TFA (1:1, 100 μL). The samples were centrifuged, and the supernatants were analyzed by radio-HPLC.

[4] = Determination of partition coefficient (log D7.4); format: physicochemical; conditions: 1-octanol/PBS pH 7.4, room temperature
Description: The lipophilicity of ^177Lu-14 (FAUC Lu469) was assessed by determination of the water-octanol partition coefficient. 1-Octanol (0.5 mL) was added to a solution of approximately 25 kBq of ^177Lu-14 in PBS (0.5 mL, pH 7.4) and the layers were vigorously mixed for 3 min at room temperature. The tubes were centrifuged (14000 rpm, 1 min) and three samples of 100 μL of each layer were counted in a γ-counter (Wallac Wizard). The partition coefficient was determined by calculating the ratio cpm (octanol)/cpm (PBS) and expressed as log D74) log(cpmoctanol/cpmbuffer). The experiments were performed in triplicates. The log D7.4 value was determined to be −1.8±0.1 (mean value±standard deviation, n=6).

[5] = Biodistribution in xenografted nude mice, normal tissue; format: in vivo, Athymic nude mice (nu/nu); conditions: i.v.
Description: (§2) Athymic nude mice (nu/nu) were obtained from Harlan Winkelmann GmbH (Borchen, Germany) at 4 weeks of age and were kept under standard conditions (12 h light/dark) with food and water available ad libitum. AsPC-1, PC-3 or HT29 cells were harvested and suspended in sterile PBS at a concentration of 2×10^7 cells/ml. Viable cells (2×10^6) in PBS (100 μL) were injected subcutaneously in the back. Two weeks after inoculation (tumor weight: 400-800 mg), the mice (about 10-12 weeks old with about 40 g body weight) were used for biodistribution studies.
(§3) The xenografted mice were injected with ^177Lu-14 (FAUC Lu469, 1 MBq/mouse) intravenously into the tail vein. The mice were sacrificed by cervical dislocation at 24 h and 48 h post-injection (p.i.). Tumors and other tissues (blood, lung, liver, kidneys, heart, brain, muscle and intestine) were removed and weighed. Radioactivity of the dissected tissues was determined using a γ-counter. Results were expressed as percentage of injected dose per gram of tissue (% ID/g), and tumor-to-organ ratios were calculated. Results are reported as percent injected dose per gram (% ID/g) in Table 2 and FIG. 1.

[6] = test system: HT29; assay: Biodistribution in xenografted nude mice, HT29 tumor uptake; format: in vivo, Athymic nude mice (nu/nu); conditions: i.v.
Description: as §2, §3

[7] = test system: PC3; assay: Biodistribution in xenografted nude mice, PC3 tumor uptake; format: in vivo, Athymic nude mice (nu/nu); conditions: i.v.
Description: as §2, §3

[8] = test system: AsPC1; assay: Biodistribution in xenografted nude mice, AsPC1 tumor uptake; format: in vivo, Athymic nude mice (nu/nu); conditions: for Uptake AsPC1 tumor: i.v.
Description: as §2
as §3, with “The mice were sacrificed by cervical dislocation at 24 h and 48 h post-injection (p.i.).” left out

[9] = test system: PC1-3 tumors; assay: Therapy study, PC1-3 tumors, single-dose administration; format: in vivo, Nude mice; conditions: single dose 30±9 MBq/animal
Description: Nude mice bearing PC1-3 tumors at the back were used for the therapy study. One week after inoculation of the PC1-3 cells, ^177Lu-14 (FAUC Lu469) was injected in four mice at a dose of 30±9 MBq/animal. Eight additional animals were injected with saline as control animals. The body weight and the tumor diameter was measured every three days. […] The tumor inhibition growth factor was 64% after 49 days.

[10] = test system: AsPC-1 tumors (human pancreas adenocarcinoma); assay: Therapy study, AsPC-1 tumors, single-dose and double-dose administration; format: in vivo, Nude mice
Description: Nude mice bearing AsPC-1 tumors (human pancreas adenocarcinoma) at the back were used for the therapy study. One week after inoculation of the AsPC-1 cells, six mice were injected with a single dose of ^177Lu-14 (FAUC Lu469) (28±6 MBq/animal, group B, single-dose administration) at day 0 and another six animals were injected with a double-dose of ^177Lu-14 (FAUC Lu469) (2×29±4 MBq/animal, group C, double-dose administration), consisting of the first dose (29 MBq/animal) at the starting day of radiotherapy (day 0) and the second dose (29 MBq/animal) at day 10 after begin of treatment. Six additional animals were injected with saline as untreated control animals (group A). The body weight and the tumor diameter were measured five times a week.

[11] = biological target: hD1 (Homo sapiens, UniProt P21728); assay: competitive radioligand binding, hD1; conditions: [^3H] SCH 23990
hD1, sequence (P21728 whole entry): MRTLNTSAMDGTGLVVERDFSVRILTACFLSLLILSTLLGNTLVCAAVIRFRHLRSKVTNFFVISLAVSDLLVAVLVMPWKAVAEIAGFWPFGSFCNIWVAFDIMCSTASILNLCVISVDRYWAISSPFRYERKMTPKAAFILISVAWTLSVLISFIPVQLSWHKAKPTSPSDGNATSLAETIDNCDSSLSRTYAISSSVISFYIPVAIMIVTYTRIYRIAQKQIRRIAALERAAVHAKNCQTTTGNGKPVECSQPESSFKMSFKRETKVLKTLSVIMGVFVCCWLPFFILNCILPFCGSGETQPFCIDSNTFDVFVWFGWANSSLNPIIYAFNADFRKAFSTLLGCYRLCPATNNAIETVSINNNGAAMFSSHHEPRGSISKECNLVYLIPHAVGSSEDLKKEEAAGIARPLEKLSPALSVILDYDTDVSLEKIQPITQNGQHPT
Description: as §1

[12] = biological target: hD5 (Homo sapiens, UniProt P21918); assay: competitive radioligand binding, hD5; conditions: [^3H] SCH 23990
hD5, sequence (P21918 whole entry): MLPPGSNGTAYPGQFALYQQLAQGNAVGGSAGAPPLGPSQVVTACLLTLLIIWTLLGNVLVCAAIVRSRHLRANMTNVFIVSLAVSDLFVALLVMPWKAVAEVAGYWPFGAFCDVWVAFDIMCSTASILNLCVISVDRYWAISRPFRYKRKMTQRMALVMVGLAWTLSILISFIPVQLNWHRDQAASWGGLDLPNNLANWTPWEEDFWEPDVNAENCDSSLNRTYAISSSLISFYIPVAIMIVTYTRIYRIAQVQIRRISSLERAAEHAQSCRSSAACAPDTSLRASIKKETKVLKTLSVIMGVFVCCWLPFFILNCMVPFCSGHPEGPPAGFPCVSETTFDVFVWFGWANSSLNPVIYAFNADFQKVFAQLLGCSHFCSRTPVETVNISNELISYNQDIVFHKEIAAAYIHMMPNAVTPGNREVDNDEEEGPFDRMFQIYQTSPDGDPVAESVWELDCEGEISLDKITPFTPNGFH
Description: as §1

[13] = biological target: hD2long (Homo sapiens, UniProt P14416); assay: competitive radioligand binding, hD2long; conditions: [^3H] spiperone
hD2long, sequence (P14416 whole entry): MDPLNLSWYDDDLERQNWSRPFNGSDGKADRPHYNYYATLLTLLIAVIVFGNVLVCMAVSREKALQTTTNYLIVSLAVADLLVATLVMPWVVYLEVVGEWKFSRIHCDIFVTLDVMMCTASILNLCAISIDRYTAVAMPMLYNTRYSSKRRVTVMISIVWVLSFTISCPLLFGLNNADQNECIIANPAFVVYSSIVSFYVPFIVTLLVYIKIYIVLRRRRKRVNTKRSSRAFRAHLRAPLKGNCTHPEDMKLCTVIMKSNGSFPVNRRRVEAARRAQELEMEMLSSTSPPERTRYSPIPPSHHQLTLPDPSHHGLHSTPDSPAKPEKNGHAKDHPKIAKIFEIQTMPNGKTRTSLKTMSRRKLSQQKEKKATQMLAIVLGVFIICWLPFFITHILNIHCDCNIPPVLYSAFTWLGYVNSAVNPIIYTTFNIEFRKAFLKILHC
Description: as §1

[14] = biological target: hD2short (Homo sapiens, UniProt P14416); assay: competitive radioligand binding, hD2short; conditions: [^3H] spiperone
hD2short, sequence (P14416 1-414 isoform P14416-2): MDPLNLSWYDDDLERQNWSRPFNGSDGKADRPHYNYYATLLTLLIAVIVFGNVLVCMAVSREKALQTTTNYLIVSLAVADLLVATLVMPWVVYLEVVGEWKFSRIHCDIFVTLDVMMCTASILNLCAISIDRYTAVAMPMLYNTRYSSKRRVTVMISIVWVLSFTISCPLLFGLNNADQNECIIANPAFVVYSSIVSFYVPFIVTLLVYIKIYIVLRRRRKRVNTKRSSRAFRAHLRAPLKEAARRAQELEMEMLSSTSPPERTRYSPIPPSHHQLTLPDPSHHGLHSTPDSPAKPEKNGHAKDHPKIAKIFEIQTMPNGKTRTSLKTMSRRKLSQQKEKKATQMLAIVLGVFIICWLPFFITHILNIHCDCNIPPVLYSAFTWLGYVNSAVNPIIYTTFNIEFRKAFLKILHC
Description: as §1

[15] = biological target: hD3 (Homo sapiens, UniProt P35462); assay: competitive radioligand binding, hD3; conditions: [^3H] spiperone
hD3, sequence (P35462 whole entry): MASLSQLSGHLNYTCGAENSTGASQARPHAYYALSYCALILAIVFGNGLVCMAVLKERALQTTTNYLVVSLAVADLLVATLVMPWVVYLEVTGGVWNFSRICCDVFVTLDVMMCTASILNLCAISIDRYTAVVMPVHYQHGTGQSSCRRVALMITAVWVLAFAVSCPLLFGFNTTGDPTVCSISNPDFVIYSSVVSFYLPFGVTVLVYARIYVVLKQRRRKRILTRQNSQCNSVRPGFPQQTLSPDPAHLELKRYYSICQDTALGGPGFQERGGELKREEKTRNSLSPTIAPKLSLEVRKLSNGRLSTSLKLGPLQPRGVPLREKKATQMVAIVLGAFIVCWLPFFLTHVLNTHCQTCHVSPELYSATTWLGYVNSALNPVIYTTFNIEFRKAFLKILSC
Description: as §1

[16] = biological target: T1, hD4.4 (Homo sapiens, UniProt P21917); assay: competitive radioligand binding, hD4.4; conditions: [^3H] spiperone
T1 sequence (P21917 1-419): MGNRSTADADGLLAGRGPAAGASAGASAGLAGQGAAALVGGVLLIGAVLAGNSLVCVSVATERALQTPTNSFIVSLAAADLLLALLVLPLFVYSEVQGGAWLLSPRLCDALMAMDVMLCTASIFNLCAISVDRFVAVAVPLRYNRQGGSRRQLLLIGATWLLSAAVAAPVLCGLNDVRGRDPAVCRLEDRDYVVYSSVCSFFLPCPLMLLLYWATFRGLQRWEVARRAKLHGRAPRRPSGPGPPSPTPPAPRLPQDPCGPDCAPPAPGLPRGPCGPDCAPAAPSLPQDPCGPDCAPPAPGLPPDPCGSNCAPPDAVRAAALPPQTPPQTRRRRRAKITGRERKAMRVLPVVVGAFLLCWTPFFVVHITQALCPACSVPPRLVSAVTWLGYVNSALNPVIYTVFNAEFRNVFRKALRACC
Description: as §1

[17] = biological target: T2, p5-HT1A (Sus scrofa, UniProt A0A4X1UTF5); assay: competitive radioligand binding, p5-HT1A; conditions: [^3H] WAY600135
T2 sequence (A0A4X1UTF5 1-422): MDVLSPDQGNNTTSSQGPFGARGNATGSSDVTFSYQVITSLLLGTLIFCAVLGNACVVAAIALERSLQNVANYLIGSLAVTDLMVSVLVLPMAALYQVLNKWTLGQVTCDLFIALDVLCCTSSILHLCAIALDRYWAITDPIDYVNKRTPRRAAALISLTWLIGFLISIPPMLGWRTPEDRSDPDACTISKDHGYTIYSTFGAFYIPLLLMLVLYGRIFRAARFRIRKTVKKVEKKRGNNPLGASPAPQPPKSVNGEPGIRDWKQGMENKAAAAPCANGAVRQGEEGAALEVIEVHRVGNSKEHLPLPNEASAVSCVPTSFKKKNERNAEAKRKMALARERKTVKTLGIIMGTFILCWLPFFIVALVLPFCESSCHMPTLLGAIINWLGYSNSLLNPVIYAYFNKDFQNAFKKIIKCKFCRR
Description: as §1

[18] = biological target: h5-HT2 (Homo sapiens, UniProt P28223); assay: competitive radioligand binding, h5-HT2; conditions: [^3H] ketanserin
h5-HT2, sequence (P28223 whole entry): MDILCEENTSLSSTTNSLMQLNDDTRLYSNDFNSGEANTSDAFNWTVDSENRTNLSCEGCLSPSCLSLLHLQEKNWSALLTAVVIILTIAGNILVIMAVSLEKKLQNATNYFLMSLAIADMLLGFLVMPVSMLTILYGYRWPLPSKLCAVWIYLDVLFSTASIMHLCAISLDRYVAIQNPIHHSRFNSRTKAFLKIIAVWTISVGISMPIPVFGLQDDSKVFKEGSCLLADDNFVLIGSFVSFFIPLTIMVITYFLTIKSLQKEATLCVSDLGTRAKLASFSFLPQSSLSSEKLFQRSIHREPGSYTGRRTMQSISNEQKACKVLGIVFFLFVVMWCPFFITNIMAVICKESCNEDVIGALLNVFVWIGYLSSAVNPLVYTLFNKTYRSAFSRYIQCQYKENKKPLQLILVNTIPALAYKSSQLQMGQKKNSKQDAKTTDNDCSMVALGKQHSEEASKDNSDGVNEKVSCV
Description: as §1

[19] = biological target: pα1; assay: competitive radioligand binding, pα1; conditions: [^3H] prazosine

hNTS1, sequence (P30989 whole entry): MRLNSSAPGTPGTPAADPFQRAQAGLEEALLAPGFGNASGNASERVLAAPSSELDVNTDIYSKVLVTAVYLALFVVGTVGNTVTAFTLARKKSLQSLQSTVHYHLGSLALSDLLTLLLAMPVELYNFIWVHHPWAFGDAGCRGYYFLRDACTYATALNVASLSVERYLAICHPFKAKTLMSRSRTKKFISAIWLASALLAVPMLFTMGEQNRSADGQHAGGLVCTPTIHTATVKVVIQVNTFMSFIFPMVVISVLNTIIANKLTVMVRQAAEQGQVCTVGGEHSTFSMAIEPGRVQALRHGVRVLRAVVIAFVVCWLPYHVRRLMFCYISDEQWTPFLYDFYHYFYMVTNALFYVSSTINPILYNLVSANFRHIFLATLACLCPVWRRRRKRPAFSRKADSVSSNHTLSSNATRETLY

Ki [1]: 1.9 nM | Ki [2]: 100 nM
Structure (SMILES): COc1cccc(OC)c1-c1cc(C(=O)NC2(C(=O)O)C3CC4CC(C3)CC2C4)nn1-c1ccc(-c2cn(CCCN(C)CCCNC(=O)CN3CCN(CC(=O)O)CCN(CC(=O)O)CCN(CC(=O)O)CC3)nn2)cc1C(C)C (stereo not drawn) [Compound 13]

Structure (SMILES): COc1cccc(OC)c1-c1cc(C(=O)NC2(C(=O)O)C3CC4CC(C3)CC2C4)nn1-c1ccc(-c2cn(CCCN(C)CCCNC(=O)CN3CCN4CCN5CCN(CC3)CC(=O)[O][177Lu]([O]C(=O)C4)[O]C(=O)C5)nn2)cc1C(C)C (stereo not drawn) [^177Lu-14]
Stability in human plasma (degradation products by radio-HPLC) [3]: No degradation products were observed | log D7.4 [4]: −1.8±0.1 | Uptake blood ([5]; 24 h p.i.): 0.36 % ID/g | Uptake blood ([5]; 48 h p.i.): 0.14 % ID/g | Uptake brain ([5]; 24 h p.i.): 0.06 % ID/g | Uptake brain ([5]; 48 h p.i.): 0.04 % ID/g | Uptake femur ([5]; 24 h p.i.): 0.89 % ID/g | Uptake femur ([5]; 48 h p.i.): 0.75 % ID/g | Uptake heart ([5]; 24 h p.i.): 1.05 % ID/g | Uptake heart ([5]; 48 h p.i.): 0.56 % ID/g | Uptake intestine ([5]; 24 h p.i.): 1.40 % ID/g | Uptake intestine ([5]; 48 h p.i.): 0.77 % ID/g | Uptake kidney ([5]; 24 h p.i.): 4.54 % ID/g | Uptake kidney ([5]; 48 h p.i.): 2.48 % ID/g | Uptake liver ([5]; 24 h p.i.): 11.61 % ID/g | Uptake liver ([5]; 48 h p.i.): 5.45 % ID/g | Uptake lung ([5]; 24 h p.i.): 4.15 % ID/g | Uptake lung ([5]; 48 h p.i.): 1.23 % ID/g | Uptake muscle ([5]; 24 h p.i.): 0.29 % ID/g | Uptake muscle ([5]; 48 h p.i.): 0.19 % ID/g | Uptake spleen ([5]; 24 h p.i.): 2.40 % ID/g | Uptake spleen ([5]; 48 h p.i.): 1.60 % ID/g | Uptake HT29 tumor ([6]; 24 h p.i.): 18.64 % ID/g | Uptake HT29 tumor ([6]; 48 h p.i.): 16.34 % ID/g | Uptake PC3 tumor ([7]; 24 h p.i.): 15.57 % ID/g | Uptake PC3 tumor ([7]; 48 h p.i.): 10.85 % ID/g | Uptake AsPC1 tumor ([8]; 24 h p.i.): 22.36 % ID/g | Uptake AsPC1 tumor ([8]; 48 h p.i.): 14.41 % ID/g | AsPC1-tumor retention ([8]; day 7 p.i.): 13.2±2.1 % ID/g | tumor inhibition growth factor ([9]; after 49 days): 64% | survival versus untreated control animals [9]: significantly longer survival | tumor growth and tumor size versus untreated control animals [9]: significantly inhibited tumor growth and a reduction in tumor size | longer survival than untreated control animals ([10]; double-dose 2×29±4 MBq/animal (group C), day 0 and day 10): +209% | tumor growth and tumor size versus untreated control animals ([10]; single dose 28±6 MBq/animal (group B), between day 11 and 21, adjusted p=0.049): significant tumor growth inhibition and a reduction in tumor size

Ki [1]: 1.6 nM | Ki [2]: 59 nM
Structure (SMILES): COc1cccc(OC)c1-c1cc(C(=O)NC2(C(=O)O)C3CC4CC(C3)CC2C4)nn1-c1ccc(-c2cn(CCCN(C)C[C@@H](O)CNC(=O)CN3CCN(CC(=O)O)CCN(CC(=O)O)CCN(CC(=O)O)CC3)nn2)cc1C(C)C (stereo partly drawn) [Compound 19]

Ki [1]: 1.4 nM | Ki [2]: 27 nM
Structure (SMILES): COc1cccc(OC)c1-c1cc(C(=O)NC2(C(=O)O)C3CC4CC(C3)CC2C4)nn1-c1ccc(-c2cn(CCCN(C)C[C@@H](O)CNC(=O)CN3CCN(CC(=O)[O-])CCN(CC(=O)[O-])CCN(CC(=O)[O-])CC3)nn2)cc1C(C)C.[Lu+3] (stereo partly drawn) [Compound 20]

Ki [1]: 0.19 nM | Ki [2]: 13 nM | Ki [11]: > 50000 nM | Ki [12]: > 50000 nM | Ki [13]: > 50000 nM | Ki [14]: > 50000 nM | Ki [15]: > 50000 nM | Ki [16]: > 50000 nM | Ki [17]: > 50000 nM | Ki [18]: > 50000 nM | Ki [19]: > 50000 nM
Structure (SMILES): COc1cccc(OC)c1-c1cc(C(=O)NC2(C(=O)O)C3CC4CC(C3)CC2C4)nn1-c1ccc(-c2cn(CCCN(C)CCCNC(=O)CN3CCN(CC(=O)[O-])CCN(CC(=O)[O-])CCN(CC(=O)[O-])CC3)nn2)cc1C(C)C.[Lu+3] (stereo not drawn) [Compound 14]
